Columns and labels:
Type in all cases: functional, cell-based
[1] = system: HepG2; experiment: Cytotoxicity against human HepG2 cells assessed as growth inhibition after 72 hrs by neutral red assay; details: HepG2, 72 h
[2] = system: MCF7; experiment: Cytotoxicity against human MCF7 cells assessed as growth inhibition after 72 hrs by neutral red assay; details: MCF7, 72 h
[3] = system: KB; experiment: Cytotoxicity against human KB cells assessed as growth inhibition after 72 hrs by neutral red assay
[4] = system: Lu1; experiment: Cytotoxicity against human Lu1 cells assessed as growth inhibition after 72 hrs by neutral red assay; details: Lu1, 72 h

SMILES	IC50 [1]	IC50 [2]	IC50 [3]	IC50 [4]
CO[C@@H]1CC(=O)[C@]2(C)[C@@H]1[C@H](O)C[C@@H]1[C@@]3(C)CC[C@H](O)C(C)(C)[C@@H]3CC[C@]12C	82 µM	79.7 µM	78 µM	80.7 µM
CC1(C)[C@@H](O)CC[C@]2(C)[C@H]3C[C@@H](O)[C@@H]4C=CC(=O)[C@@]4(C)[C@]3(C)CC[C@@H]12	5.1 µM	5 µM	5.2 µM	5.2 µM
C/C(=C\CO)CCCC(C)CCCC(C)CCCC(C)C (stereo not drawn)	> 100 µM	> 100 µM	> 100 µM	> 100 µM
C/C(=C\CC[C@](C)(O)[C@H]1CC[C@]2(C)[C@@H]1CC[C@@H]1[C@@]3(C)CCC(=O)C(C)(C)[C@@H]3CC[C@]12C)C(=O)O	> 100 µM	> 100 µM	> 100 µM	> 100 µM
CC1(C)[C@@H](O)CC[C@]2(C)[C@H]3C[C@@H](O)[C@@H]4[C@H](O)CC(=O)[C@@]4(C)[C@]3(C)CC[C@@H]12	> 100 µM	> 100 µM	> 100 µM	> 100 µM
CC1(C)C(=O)CC[C@]2(C)[C@H]3C[C@@H](O)[C@@H]4C=CC(=O)[C@@]4(C)[C@]3(C)CC[C@@H]12	5.3 µM	4.7 µM	5 µM	5.1 µM
C=C(C)[C@@H]1CC[C@@]2(C)[C@H]1[C@H]1CC[C@@H]3[C@@]4(C)CCC(=O)C(C)(C)[C@@H]4CC[C@@]3(C)[C@]1(C)C[C@@H]2O	50.4 µM	48 µM	30.5 µM	61.5 µM
C/C(=C\CC[C@](C)(O)[C@@H]1[C@H]2CC[C@@H]3[C@@]4(C)CCC(=O)C(C)(C)[C@@H]4CC[C@@]3(C)[C@]2(C)C[C@@H]1O)C(=O)O	> 100 µM	> 100 µM	> 100 µM	> 100 µM
CC1(C)C(=O)CC[C@]2(C)[C@H]3C[C@@H](O)[C@@H]4[C@H](O)CC(=O)[C@@]4(C)[C@]3(C)CC[C@@H]12	5.7 µM	4.3 µM	> 100 µM	5.8 µM
C[C@H]1[C@H](C)CC[C@]2(C)CC[C@]3(C)C(=CC[C@@H]4[C@@]5(C)CC[C@H](O)C(C)(C)[C@@H]5CC[C@]43C)[C@H]12	> 100 µM	> 100 µM	> 100 µM	> 100 µM
COc1c(-c2ccc(O)cc2)oc2cc(O)cc(O)c2c1=O [ISOKAEMPFERIDE]	62.5 µM	55.4 µM	64.8 µM	60.1 µM
O=c1cc(-c2ccc(O)c(O)c2)oc2cc(O)cc(O)c12 [LUTEOLIN]	47.3 µM	44.4 µM	45.3 µM	40.8 µM
CC1(C)CC[C@]2(C(=O)O)CC[C@]3(C)C(=CC[C@@H]4[C@@]5(C)C[C@@H](O)[C@H](O)C(C)(C)[C@@H]5CC[C@]43C)[C@@H]2C1 [MASLINIC ACID]	> 100 µM	> 100 µM	> 100 µM	> 100 µM
CC1(C)CC[C@]2(C(=O)O)CC[C@]3(C)C(=CC[C@@H]4[C@@]5(C)CC[C@H](O)C(C)(C)[C@@H]5CC[C@]43C)[C@@H]2C1 [OLEANOLIC_ACID]	> 100 µM	> 100 µM	> 100 µM	> 100 µM
C[C@H]1[C@H](C)CC[C@]2(C(=O)O)CC[C@]3(C)C(=CC[C@@H]4[C@@]5(C)CC[C@H](O)C(C)(C)[C@@H]5CC[C@]43C)[C@H]12 [URSOLIC ACID]	40.2 µM	9.3 µM		11.5 µM
C[C@H]1[C@H](C)CC[C@]2(CO)CC[C@]3(C)C(=CC[C@@H]4[C@@]5(C)CC[C@H](O)C(C)(C)[C@@H]5CC[C@]43C)[C@H]12 [UVAOL]	53.7 µM	58.2 µM	37.7 µM	53.3 µM

— ChEMBL document CHEMBL4007502, “Cytotoxic dammarane-type triterpenoids from the leaves of Viburnum sambucinum” (Bioorg Med Chem Lett, 2017)
